Measurements: US6774143B1, “Method for treating cells resistant to antineoplastic agents” (Novartis AG, priority 2003, dated 2004)
Read-outs that look alike come from different tables or passages of the source.

Columns and labels:
[1] = tested on: panel of human tumor lines (drug-susceptible cell lines); assay: Antiproliferative assay, methylene blue staining; assay type: cell-based; details: 120 h, 5 days incubation
Source text: (§1) The following cell lines are obtained from the American Type Culture Collection (ATCC, Rockville, Md., USA): human colon carcinomas HCT-15 (CCL 225) and HCT-116 (CCL 247), human lung adenocarcinoma A549 (CCL 185), human large cell carcinoma NCI-H460 (HTB 177), estrogen-independent breast carcinoma MDA-MB-231 ([…]), prostate cancer cell line Du 145 (HTB 81). The human KB-31 (drug-sensitive) and KB-8511 (multidrug-resistant, Pgp170 overexpressing) epidermoid carcinoma cells are obtained from Dr. R. M. Baker, Roswell Park Memorial Institute (Buffalo, N.Y., USA) and have been previously described (Akiyam S, et al. Somatic Cell Molec Genetics 1985;11:117-126 and Fojo A, et al., Cancer Res. […];45:3002-3007). The human metastatic prostate carcinoma PC-3M is obtained from Dr. I. J. Fidler (MD Anderson Cancer Center, Houston, Tex., USA). The estrogen-dependent human breast carcinoma cell line MCF-7/ADR (multidrug resistant) is a subline of the MCF-7 cell line (ATCC HTB 22) and is obtained from Dr. D. Fabbro (Novartis Pharma AG, Basel, Switzerland) and has been previously described (Blobe G C, et al. J. Biol. Chem. 1993; 268:658-664).
For the antiproliferative assays, cells are seeded at 1.5×10^3/well into 96-well microtiter plates and incubated overnight. Compounds are added in serial dilutions on day 1. The plates are than incubated for additional 5 days. This allowed the control cultures to undergo at least 3 cell divisions. After incubation the cells are fixed with 3.3% v/v glutaraldehyde, washed with water and stained with 0.05% w/v methylene blue. After washing, the dye is eluted with 3% v/v HCl and the optical density measured at 665 nm with a SpectraMax 340 (Bucherer, Basel, Switzerland). IC50 values are determined by a computerized system (SoftPro, Bucherer, Basel, Switzerland) using the formula (OD test—OD start)/(OD control—OD start)×100. IC50 is defined as the drug concentration which leads to 50% of cells per well compared to control cultures (100%) at the end of the incubation period.

[2] = tested on: MCF-7/ADR cells (multidrug resistant); assay: Antiproliferative assay, methylene blue staining; assay type: cell-based, human
Source text: as §1, with “The estrogen-dependent human breast carcinoma cell line MCF-7/ADR (multidrug resistant) is a subline of the MCF-7 cell line (ATCC HTB 22) and is obtained from Dr. D. Fabbro (Novartis Pharma AG, Basel, Switzerland) and has been previously described (Blobe G C, et al. J. Biol. Chem. 1993; 268:658-664).” left out
For the antiproliferative assays, cells are seeded at 1.5×10^3/well into 96-well microtiter plates and incubated overnight. […] After washing, the dye is eluted with 3% v/v HCl and the optical density measured at 665 nm with a SpectraMax 340 (Bucherer, Basel, Switzerland). IC50 values are determined by a computerized system (SoftPro, Bucherer, Basel, Switzerland) using the formula (OD test—OD start)/(OD control—OD start)×100. […]

A549 cells = assay: Antiproliferative assay (MTS); assay type: cell-based, human; details: 72 h exposure, two independent experiments, read-out: IC50 cell proliferation
Experimental: A549, a human non-small cell lung carcinoma and MDA-MB-435, a human breast carcinoma, used in this study are obtained from the American Type Culture Collection (ATCC, Rockville, Md., USA). MDA-MB-435 cells are maintained in MEM containing 10% FBS, 1% sodium pyruvate, 1% MEM non-essential amino acids, and 15 mM HEPES (pH=7.4). A549 cells are maintained in RPMI 1640 containing 10% FBS. 1A9, a single-cell clone of the human ovarian carcinoma cell line A2780 and PTX22, the paclitaxel-resistant subline, used in this stdy are obtained from M. Wartman (Novartis Pharmauticals). 1A9 cells and PTX22 cells are maintained in RPMI 1640 supplemented with 10% FBS. PTX22 maintenance media also contained 15 ng/mL paclitaxel and 5 μg/mL verapamil. Drug is removed from the media for 5-7 days before use in an experiment. All maintenance media contained 100 units/mL penicillin and 100 μg/mL streptomycin.
Cell lines are trypsinized and counted using a Coulter counter. Cells were plated in 96 well plates (190 μL/well) at the following densities: 1,000 cells/well for A549 and 3,000 cells/well for MDA-MB-435. The number of cells plated results in cell densities of 75-90% confluence by the time of harvest. Plates are seeded on day 0. On day 1 test compounds are added to triplicate wells in a final volume of 10 μL media. Initial cell density for each cell line is measured on day 1 by adding 10 μL MTS mixture (see below), incubating for 4 h and recording absorbance at 490 nm (A490). Two or three days after test compound addition, 10 μL/well of MTS mixture is added to the test plates and A490 was read 4 h later. A490 values for wells containing cells are corrected for media absorbance, then normalized to initial density readings to determine percent net growth. Percent net growth is calculated as (A490+drug−A490 initial)/(A490—drug—A490 initial). Graphs of percent net growth as a function of compound concentration are used to calculate concentrations resulting in 50% growth inhibition (IC50). MTS mixture is prepared fresh on day of addition to cell plates at a ratio of 10 μL of a 0.92 mg/mL solution of phenazine methosulfate (PMS) to 190 μL of a 2 mg/mL solution of MTS (3-(4,5-dimethylthiazol-2-yl)-5-(3-carboxymethoxyphenyl)-2-(4-sulfophenyl)-2H-tetrazolium, inner salt). PMS and MTS solutions are prepared in buffered saline containing 0.2 g/L KCl, 8.0 g/L NaCl, 0.2 g/L KH2PO4, 1.15 g/L Na2HPO4, 133 mg/L CaCl2.2H2O, 100 mg/L MgCl2.6H2O, (pH=7.35) and stored as foil-wrapped aliquots at −20° C. Test compounds are prepared as stock solutions in DMSO. Test compound dilutions are made in 2% DMSO/cell maintenance media and diluted into assay plates to give 0.1% DMSO final in all wells.

1A9PTX22 cell line = details: cited from earlier work

SMILES | IC50 [1] | potency compared with paclitaxel [2] | IC50 (A549 cells) | IC50 (A549 cells; Homo sapiens, A549, 72 h) | fold less sensitive than 1A9 (reported) (1A9PTX22 cell line; PTX-22 subline) | fold resistance of 1A9PTX22 versus parental 1A9 (1A9PTX22 cell line; in vitro, Giannakakou et al. 1997)
C=C/C=C\[C@H](C)[C@H](OC(N)=O)[C@@H](C)[C@H](O)[C@@H](C)C/C(C)=C\[C@H](C)[C@@H](O)[C@@H](C)/C=C\[C@@H](O)C[C@@H]1OC(=O)[C@H](C)[C@@H](O)[C@H]1C [discodermolide, (+)-Discodermolide] | 2 to 24 nM | more potent than paclitaxel | 60 nM | 45 nM | – | –
CC(=O)O[C@H]1C(=O)[C@@]2(C)[C@H]([C@H](OC(=O)c3ccccc3)[C@]3(O)C[C@H](OC(=O)[C@H](O)[C@@H](NC(=O)c4ccccc4)c4ccccc4)C(C)=C1C3(C)C)[C@]1(OC(C)=O)CO[C@@H]1C[C@@H]2O [paclitaxel, reference compound] | – | – | – | – | 20-30 fold | 24 fold
